Series [1] relates to Aβ1-42 (MEF M146V). Description: Aβ1-42 ELISA in MEF dKO cultures cotransfected with APP-CTF and human presenilin-1 M146V allele. Type of series: cell-based. Here is the method: H4-APPsw cell cultures were maintained on Dulbecco's modified Eagle's medium (DMEM) supplemented with L-glutamine (2 mM), fetal bovine serum (10%), and G418 (100 μg/mL). […] Aβ1-42 and Aβ1-40 assays, and Notch inhibition assays, were carried out as described previously. Mouse embryonic fibroblasts deficient in PS1 and PS2 (MEF dKO) were passaged twice per week in DMEM/F-12 medium, consisting of a 1 : 1 mixture of DMEM and F-12 nutrient mixture supplemented with 10% fetal bovine serum, penicillin, and streptomycin. For expression of human presenilin-1 in MEF dKO cells, the full length human presenilin-1 cDNA open reading frame was cloned between the BamHI and XhoI sites of the vector pcDNA5/FRT (Invitrogen), placing presenilin-1 expression under the control of the CMV promoter. […]
IC50 determinations for Aβ1-42 and Aβ1-40 in H4-APPsw cultures in 384-well format were determined using homogeneous time-resolved fluorescence immunoassays as previously described. […] In other experiments using H4-APPsw cultures, Aβ was quantified by ELISA; for Aβ1-42 the combination of monoclonal antibodies was 26D6 and 565-HRP; for Aβ1-40 it was TSD and 26D6-HRP, and for Aβ1-x it was 4G8 and 26D6-HRP. […] For Aβ in transiently transfected PS1/PS2 dKO fibroblasts, Aβ1-42 was quantified using an ELISA kit (WACO), and Aβ1-40 was quantified by ELISA as described above for H4-APPsw cultures. […]

The subject of series [2] is brain Aβ1-42. Description: Rat time course PK/PD, oral dose, indirect response model. It counts as in vivo. The note with it: Rat 3 mg/kg PO solution (predicted steady state after 3 daily doses).

These results are taken from publication PMC4109680, “Identification and Preclinical Pharmacology of the γ-Secretase Modulator BMS-869780” (International Journal of Alzheimer's Disease, 2014).

As for `COc1cc(Nc2nc3n(n2)CCCC[C@H]3c2ccc(F)cc2)ccc1-n1cnc(Cl)c1` [BMS-869780], in series [1] (Homo sapiens, presenilin-1 M146V allele), the IC50 is 22 nM. For the same compound, in series [1] (MEF cultures, higher IC50 (less potent) with M146V), the “Aβ1-42 IC50 in M146V allele relative to wild type presenilin” value is reported as “ca. 3 fold”. Moreover, in series [2], the “Brain Aβ ABEC 24 hr Aβ1-42” value is reported as 26.9% and the “Plasma AUC 0–24 hr” value was 18.6 µM·h.
